{
  "source": "patent US20260285850A1",
  "about": "“SUBSTITUTED OXAZOLIDINONES AND IMIDAZOLINONES AS HERBICIDES” (FMC CORPORATION, priority 2023, published 2026)",
  "format_in_all_cases": "in vivo",
  "key": {"[1]": {"system": "ducksalad (Heteranthera limosa)", "experiment": "Test B flooded paddy test, visual plant response rating 0-100", "conditions": "250 g ai/ha, Flood, applied to paddy water, evaluated after 13 days", "in_short": "(§1)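 Greenhouse, 13 d. Seedlings at 2-leaf stage, pots flooded to 3 cm, compound delivered into floodwater, water level held constant. Evaluated visually relative to controls.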"}, "[2]": {"system": "rice (Oryza sativa)", "experiment": "Test B flooded paddy test, visual plant response rating 0-100", "conditions": "250 g ai/ha, Flood, applied to paddy water, evaluated after 13 days", "in_short": "as §1"}, "[3]": {"system": "barnyardgrass (Echinochloa crusgalli)", "experiment": "Test B flooded paddy test, visual plant response rating 0-100", "conditions": "250 g ai/ha, Flood, applied to paddy water, evaluated after 13 days", "in_short": "as §1"}, "[4]": {"system": "sedge, umbrella (small-flower umbrella sedge, Cyperus difformis)", "experiment": "Test B flooded paddy test, visual plant response rating 0-100", "conditions": "250 g ai/ha, Flood, applied to paddy water, evaluated after 13 days", "in_short": "as §1"}, "[5]": {"system": "horseweed (Erigeron canadensis)", "experiment": "Test A postemergence application, visual injury rating 0-100", "conditions": "62 g ai/ha, postemergence, 10 days, 0 = no effect, 100 = complete control", "in_short": "(§2)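 Plants in a loam and sand soil blend were treated with each test chemical, in a non-phytotoxic solvent system including surfactant, either sprayed on seeded soil before emergence or applied after emergence at the one- to two-leaf stage. Ten days later in the greenhouse, plants were compared with untreated controls and visually rated from 0 (no effect) to 100 (complete control).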"}, "[6]": {"system": "blackgrass (Alopecurus myosuroides)", "experiment": "Test A postemergence application, visual injury rating 0-100", "in_short": "as §2"}, "[7]": {"system": "soybean (Glycine max)", "experiment": "Test A postemergence application, visual injury rating 0-100", "in_short": "as §2"}, "[8]": {"system": "kochia (Bassia scoparia)", "experiment": "Test A postemergence application, visual injury rating 0-100", "in_short": "as §2"}, "[9]": {"system": "oat, wild (wild oat, Avena fatua)", "experiment": "Test A postemergence application, visual injury rating 0-100", "in_short": "as §2"}, "[10]": {"system": "ragweed (common ragweed, Ambrosia artemisiifolia)", "experiment": "Test A postemergence application, visual injury rating 0-100", "in_short": "as §2"}, "[11]": {"system": "ryegrass, Italian (italian ryegrass, Lolium multiflorum)", "experiment": "Test A postemergence application, visual injury rating 0-100", "in_short": "as §2"}, "[12]": {"system": "green foxtail (Setaria viridis)", "experiment": "Test A postemergence application, visual injury rating 0-100", "in_short": "as §2"}, "[13]": {"system": "wheat (Triticum aestivum)", "experiment": "Test A postemergence application, visual injury rating 0-100", "in_short": "as §2"}, "[14]": {"system": "barnyardgrass (Echinochloa crus-galli)", "experiment": "Test A postemergence application, visual injury rating 0-100", "in_short": "as §2"}, "[15]": {"system": "palmer (palmer amaranth, palmer pigweed, Amaranthus palmeri)", "experiment": "Test A postemergence application, visual injury rating 0-100", "in_short": "as §2"}, "[16]": {"system": "corn (Zea mays)", "experiment": "Test A postemergence application, visual injury rating 0-100", "in_short": "as §2"}, "[17]": {"system": "blackgrass (Alopecurus myosuroides)", "experiment": "Test A preemergence soil spray, visual injury rating 0-100", "conditions": "10 days", "in_short": "as §2"}, "[18]": {"system": "soybean (Glycine max)", "experiment": "Test A preemergence soil spray, visual injury rating 0-100", "conditions": "10 days", "in_short": "as §2"}, "[19]": {"system": "kochia (Bassia scoparia)", "experiment": "Test A preemergence soil spray, visual injury rating 0-100", "conditions": "10 days", "in_short": "as §2"}, "[20]": {"system": "oat, wild (wild oat, Avena fatua)", "experiment": "Test A preemergence soil spray, visual injury rating 0-100", "conditions": "10 days", "in_short": "as §2"}, "[21]": {"system": "ragweed (common ragweed, Ambrosia artemisiifolia)", "experiment": "Test A preemergence soil spray, visual injury rating 0-100", "conditions": "10 days", "in_short": "as §2"}, "[22]": {"system": "ryegrass, Italian (italian ryegrass, Lolium multiflorum)", "experiment": "Test A preemergence soil spray, visual injury rating 0-100", "conditions": "10 days", "in_short": "as §2"}, "[23]": {"system": "green foxtail (Setaria viridis)", "experiment": "Test A preemergence soil spray, visual injury rating 0-100", "conditions": "10 days", "in_short": "as §2"}, "[24]": {"system": "wheat (Triticum aestivum)", "experiment": "Test A preemergence soil spray, visual injury rating 0-100", "conditions": "10 days", "in_short": "as §2"}, "[25]": {"system": "barnyardgrass (Echinochloa crus-galli)", "experiment": "Test A preemergence soil spray, visual injury rating 0-100", "conditions": "10 days", "in_short": "as §2"}, "[26]": {"system": "palmer (palmer amaranth, palmer pigweed, Amaranthus palmeri)", "experiment": "Test A preemergence soil spray, visual injury rating 0-100", "conditions": "62 g ai/ha, 10 days, 0 = no effect, 100 = complete control", "in_short": "as §2"}, "[27]": {"system": "corn (Zea mays)", "experiment": "Test A preemergence soil spray, visual injury rating 0-100", "conditions": "10 days", "in_short": "as §2"}, "[28]": {"conditions": "62 g ai/ha, postemergence, 10 days, 0 = no effect, 100 = complete control"}, "[29]": {"conditions": "Postemergence, 16 g ai/ha, greenhouse 10 days, 0 no effect, 100 complete control"}, "[30]": {"conditions": "62 g ai/ha, 0 = no effect, 100 = complete control"}},
  "data": [
    {"smiles": "CC(C)OC(=O)C1=CCC(NC(=O)C2(C)CN(c3cc(Cl)cc(Cl)c3)C(=O)O2)C1", "note": "(stereo not drawn) [Compound 105]", "values": [
      {"measurement": "Plant response rating, Ducksalad (0 to 100 scale, 0 is no effect and 100 is complete control)", "setting": "[1]", "result": 0},
      {"measurement": "Plant response rating, Rice (0 to 100 scale, 0 is no effect and 100 is complete control)", "setting": "[2]", "result": 0},
      {"measurement": "Plant response rating, Barnyardgrass (0 to 100 scale, 0 is no effect and 100 is complete control)", "setting": "[3]", "result": 0},
      {"measurement": "Plant response rating, Sedge, Umbrella (0 to 100 scale, 0 is no effect and 100 is complete control)", "setting": "[4]", "result": 0},
      {"measurement": "Horseweed plant response rating (0-100)", "setting": "[5]", "result": 20},
      {"measurement": "Blackgrass plant response rating (0-100)", "setting": "[6]; [28]", "result": 10},
      {"measurement": "Blackgrass plant response rating (0 to 100 scale)", "setting": "[6]; [29]", "result": 0},
      {"measurement": "Soybean plant response rating (0-100)", "setting": "[7]; [28]", "result": 0},
      {"measurement": "Soybean plant response rating (0 to 100 scale)", "setting": "[7]; [29]", "result": 0},
      {"measurement": "Kochia plant response rating (0-100)", "setting": "[8]; [28]", "result": 0},
      {"measurement": "Kochia plant response rating (0 to 100 scale)", "setting": "[8]; [29]", "result": 0},
      {"measurement": "Oat, Wild plant response rating (0-100)", "setting": "[9]; [28]", "result": 0},
      {"measurement": "Oat, Wild plant response rating (0 to 100 scale)", "setting": "[9]; [29]", "result": 0},
      {"measurement": "Ragweed plant response rating (0-100)", "setting": "[10]; [28]", "result": 0},
      {"measurement": "Ragweed plant response rating (0 to 100 scale)", "setting": "[10]; [29]", "result": 0},
      {"measurement": "Ryegrass, Italian plant response rating (0-100)", "setting": "[11]; [28]", "result": 0},
      {"measurement": "Ryegrass, Italian plant response rating (0 to 100 scale)", "setting": "[11]; [29]", "result": 0},
      {"measurement": "Foxtail, Green plant response rating (0-100)", "setting": "[12]; [28]", "result": 0},
      {"measurement": "Foxtail, Green plant response rating (0 to 100 scale)", "setting": "[12]; [29]", "result": 0},
      {"measurement": "Wheat plant response rating (0-100)", "setting": "[13]; [28]", "result": 0},
      {"measurement": "Wheat plant response rating (0 to 100 scale)", "setting": "[13]; [29]", "result": 0},
      {"measurement": "Barnyardgrass plant response rating (0-100)", "setting": "[14]; [28]", "result": 30},
      {"measurement": "Barnyardgrass plant response rating (0 to 100 scale)", "setting": "[14]; [29]", "result": 0},
      {"measurement": "Pigweed, Palmer plant response rating (0-100)", "setting": "[15]; [28]", "result": 10},
      {"measurement": "Pigweed, Palmer plant response rating (0 to 100 scale)", "setting": "[15]; [29]", "result": 0},
      {"measurement": "Corn plant response rating (0-100)", "setting": "[16]; [28]", "result": 10},
      {"measurement": "Corn plant response rating (0 to 100 scale)", "setting": "[16]; [29]", "result": 0},
      {"measurement": "Blackgrass plant response rating", "setting": "[17]; 16 g ai/ha, 0 to 100 scale", "result": 0},
      {"measurement": "Blackgrass plant response rating (0-100)", "setting": "[17]; [30]", "result": 0},
      {"measurement": "Soybean plant response rating", "setting": "[18]; 16 g ai/ha, 0 to 100 scale", "result": 0},
      {"measurement": "Soybean plant response rating (0-100)", "setting": "[18]; [30]", "result": 0},
      {"measurement": "Kochia plant response rating", "setting": "[19]; 16 g ai/ha, 0 to 100 scale", "result": 0},
      {"measurement": "Kochia plant response rating (0-100)", "setting": "[19]; [30]", "result": 0},
      {"measurement": "Oat, Wild plant response rating", "setting": "[20]; 16 g ai/ha, 0 to 100 scale", "result": 0},
      {"measurement": "Oat, Wild plant response rating (0-100)", "setting": "[20]; [30]", "result": 0},
      {"measurement": "Ragweed plant response rating", "setting": "[21]; 16 g ai/ha, 0 to 100 scale", "result": 0},
      {"measurement": "Ragweed plant response rating (0-100)", "setting": "[21]; [30]", "result": 0},
      {"measurement": "Ryegrass, Italian plant response rating", "setting": "[22]; 16 g ai/ha, 0 to 100 scale", "result": 0},
      {"measurement": "Ryegrass, Italian plant response rating (0-100)", "setting": "[22]; [30]", "result": 0},
      {"measurement": "Foxtail, Green plant response rating", "setting": "[23]; 16 g ai/ha, 0 to 100 scale", "result": 0},
      {"measurement": "Foxtail, Green plant response rating (0-100)", "setting": "[23]; [30]", "result": 0},
      {"measurement": "Wheat plant response rating", "setting": "[24]; 16 g ai/ha, 0 to 100 scale", "result": 0},
      {"measurement": "Wheat plant response rating (0-100)", "setting": "[24]; [30]", "result": 0},
      {"measurement": "Barnyardgrass plant response rating", "setting": "[25]; 16 g ai/ha, 0 to 100 scale", "result": 0},
      {"measurement": "Barnyardgrass plant response rating (0-100)", "setting": "[25]; [30]", "result": 0},
      {"measurement": "Pigweed, Palmer plant response rating (0-100)", "setting": "[26]", "result": 10},
      {"measurement": "Corn plant response rating", "setting": "[27]; 16 g ai/ha, 0 to 100 scale", "result": 0},
      {"measurement": "Corn plant response rating (0-100)", "setting": "[27]; [30]", "result": 0}
    ]}
  ]
}
